Experiments:
Type in all cases: physicochemical
[1] = SAXS analysis of compound/water system (liquid crystal formation); details: compound/water system gel, 50% by mass in water-excess condition, room temperature (25° C.)
Source text: Whether or not a liquid crystal structure has a cubic lattice may be determined by a small-angle X-ray scattering (SAXS) method, for the purpose of confirming liquid crystal formation. First, an amphipathic compound/water system sample with a predetermined concentration can be filled into an X-ray capillary tube made of quartz, for example, and the capillary tube is sealed with an oxy-fuel burner, and subjected to SAXS assay.
Mono-O-(5,9,13-trimethyltetradeca-4,8,12-trienoyl)glycerol synthesized in Example 1 and pure water were introduced into a mixing device at the concentration of 50% by mass of mono-O-(5,9,13-trimethyltetradeca-4,8,12-trienoyl)glycerol (in water-excess condition), and they were mixed at room temperature (25° C.) and left for 24 hours to obtain a homogeneous mixture. Then the separated water was removed. Thus, a sample of mono-O-(5,9,13-trimethyltetradeca-4,8,12-trienoyl)glycerol/water system was obtained as a white turbid to colorless transparent gel composition in appearance (it was referred to below as the gel sample).
Subsequently, the gel sample was analyzed by small-angle x-ray scattering (SAXS). The NANO-Viewer nano-scale X-ray structure analysis equipment (Rigaku) was used for SAXS analysis, which was performed by X-ray irradiation at room temperature (25° C.), 40 kV, 50 mA, wavelength λ=0.1542 nm (Cu-Kα).
Each of the compounds synthesized in Example 32, 33, 43, 45, 49, and 50 and water were homogeneously mixed in accordance with the same procedure as in Example 9 to obtain a sample of each compound/water system being a gel in appearance. SAXS analysis of these gel samples was performed in the same manner as in Example 9. […]

[2] = Shear viscosity of liquid crystal gels; details: gel prepared by addition of water, 25° C.
Method: (§1) The viscosity was measured for the gels prepared by addition of water to the compounds synthesized in Examples 1, 4, and 5. Specifically, for the gel samples obtained by mixing homogeneously according to the same procedure as in Example 9, the shear viscosity was measured at a temperature of 25° C., using a viscosity and viscoelasticity measuring apparatus (Gemini II, Malvern Instruments Ltd.; cone plate φ25, cone angle 1°).
as §1, with “45” for “1, 4,”, “50, and C17 glycerin ester synthesized in Example 13.” for “5.”

[3] = Viscosity of the compound itself (Gemini II, Malvern); details: 25° C., at shear velocity of 92 1/s
Method: In addition, the amphipathic compound to be used for the adhesion preventing agent of the present invention has low viscosity in itself. Specifically, the amphipathic compound to be used for the adhesion preventing agent of the present invention has a viscosity of preferably 15.0 Pa·s or less, more preferably 11.0 Pa·s or less, and further preferably 6.0 Pa·s or less as measured at 25° C. in itself. The viscosity can be measured using, for example, a viscosity and viscoelasticity measuring apparatus (Gemini II, Malvern Instruments Ltd.) at 25° C.
The viscosity of each of the compounds described in the Examples 1-7 was measured using a viscosity/viscoelasticity measuring instrument (Gemini II, Malvern) at the temperature of 25° C.

[4] = Preparability and temperature stability of comparative formulations; details: 0.65 cs dimethicone (GMO: 1.00 g in 2.33 g)
Method: 2.33 g of 0.65 cs dimethicone (Dow Corning Q7-9180 Silocon Fluid 0.65 CST) was added to 1.00 g of GMO (Rikemal XO-100L, Riken Vitamin Co., Ltd.), followed by stirring to prepare a solution.
Additionally, an o/w dispersion of GMO having the same composition as test sample 18 as described above was prepared, and stored at a refrigerated temperature (7° C.). […] Thus, it is shown that the o/w dispersion of GMO has low temperature stability.
In accordance with Example 14 described in JP Patent Publication No. 2008-528463A, GDO (4.30 g), SPC (Lecinol S-10E, 2.90 g), P80 (1.80 g), and ethanol (1.00 g) were mixed to prepare a liquid crystal precursor composition (GDO/SPC/P80/EtOH=43:29:18:10).
6 mL of distilled water was added to 1.388 g of the liquid crystal precursor composition, followed by stirring for 1 hour to prepare test sample 6 (GDO/SPC/P80/EtOH/water=[…]:81.2).
Thus, it was impossible to prepare a lipid/dimethicone preparation, unlike test samples 13, 14, 21 and 23. […] It was considered that this was due to high viscosity of the sample.

liquid crystal structure (SAXS peak value ratio) [1] | Viscosity ([2]; shear velocity 10 1/s) [Pas · sec] | Viscosity ([2]; shear velocity 105 1/s) [Pas · sec] | Viscosity [3] [Pa·s] | SMILES | state / solubility in dimethicone [4]
reverse hexagonal liquid crystals | 81 | 14 | 0.78 | CC(C)=CCC/C(C)=C/CC/C(C)=C/CCC(C)=CCCCOCC(CO)(CO)CO [Example 50, mono-O-(5,9,13,17-tetramethyloctadeca-4,8,12,16-tetraenyl)pentaerythritol] | 
 |  |  |  | CCCCCCCC/C=C\CCCCCCCC(=O)OCC(O)CO (centres unmarked) [GMO, Glyceryl Monooleate] | crystals were precipitated

Reference: US20160067208A1, “ADHESION PREVENTING AGENT” (FARNEX INCORPORATED, priority 2013, published 2016)
